Data as given in US20060293360A1, “4-(2-Phenyloxyphenyl)-piperidine or-1,2,3,6-tetrahydropyridine derivatives as serotonin reuptake inhibitors” (H. Lundbeck A/S, priority 2003, published 2006).

Tests used:
[1] = target: T1, norepinephrine uptake ([3H]-noradrenaline uptake into rat cortical synaptosomes) (Rattus norvegicus, UniProt Q9WTR4); test: [3H]Noradrenaline uptake into rat cortical synaptosomes; type: biochemical; conditions: result in words
T1 construct: Fresh cortex from male Wistar rats (125-225 g) are homogenized in 0.4M sucrose; from tissue; host or cells: synaptosomal fraction of fresh cortex from male Wistar rats
T1 sequence (Q9WTR4 1-597): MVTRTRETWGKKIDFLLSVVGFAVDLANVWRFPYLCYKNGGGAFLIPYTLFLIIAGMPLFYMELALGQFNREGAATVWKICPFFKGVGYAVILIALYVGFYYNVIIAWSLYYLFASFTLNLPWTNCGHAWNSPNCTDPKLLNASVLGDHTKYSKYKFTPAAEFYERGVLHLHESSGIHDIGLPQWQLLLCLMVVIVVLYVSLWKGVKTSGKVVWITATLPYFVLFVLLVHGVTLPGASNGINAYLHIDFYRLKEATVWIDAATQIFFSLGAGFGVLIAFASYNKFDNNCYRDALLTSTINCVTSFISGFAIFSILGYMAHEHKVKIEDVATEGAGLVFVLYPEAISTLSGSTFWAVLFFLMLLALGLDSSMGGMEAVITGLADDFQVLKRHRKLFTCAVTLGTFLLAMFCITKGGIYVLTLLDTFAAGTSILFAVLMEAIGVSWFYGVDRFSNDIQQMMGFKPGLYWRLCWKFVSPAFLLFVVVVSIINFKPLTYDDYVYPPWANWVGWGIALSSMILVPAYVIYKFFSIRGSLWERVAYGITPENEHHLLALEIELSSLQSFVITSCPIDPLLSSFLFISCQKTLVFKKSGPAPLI
Method: Measurements of [^3 H]Noradrenaline Uptake into Rat Cortical Synaptosomes.
Fresh cortex from male Wistar rats (125-225 g) are homogenized in 0.4M sucrose with a glass/teflon homogenizer. The homogenate is centrifuged at 600×g for 10 min at 4° C. The pellet is discarded and the supernatant is centrifuged at 20.000×g for 55 min. The final pellet is homogenized (20 sec) in this assay buffer (6 mg original tissue/mL=[…]). Test compounds (or buffer) and 10 nM [^3H]-noradrenaline are added to deep 96 well plates and shaken briefly. Composition of assay buffer: 123 mM NaCl, 4.82 mM 1Cl, 0.973 mM CaCl2, 1.12 mM MgSO4, 12.66 MM Na2HPO4, 2.97 MM NaH2PO4, 0.162 mM EDTA, 10 mM glucose and 1 mM ascorbic acid. Buffer is oxygenated with 95% 02/5% C02 for 10 min at 37° C. and pH is adjusted 7.4. The incubation is started by adding tissue to a final assay volume of 1 ml. After 15 min incubation with radioligand at 37° C., samples are filtered directly on Unifilter GF/C glass fiber filters (soaked for 1 hour in 0.1% polyethylenimie) under vacuum and immediately washed with 3×1 mL assay buffer. Non-specific uptake is determined using talsupram ([…] final concentration). Duloxetine is included as reference in all experiments as dose-response curve.

[2] = target: T2, serotonin reuptake ([3H]-5-HT uptake into rat cortical synaptosomes) (Rattus norvegicus, UniProt P31652); test: [3H]-5-HT uptake into rat cortical synaptosomes; type: biochemical; conditions: result in words
T2 construct: Whole brains from male Wistar rats (125-225 g), excluding cerebellum, are homogenized; from tissue; host or cells: synaptosomal fraction of whole brain (excluding cerebellum) from male Wistar rats
T2 sequence (P31652 whole entry): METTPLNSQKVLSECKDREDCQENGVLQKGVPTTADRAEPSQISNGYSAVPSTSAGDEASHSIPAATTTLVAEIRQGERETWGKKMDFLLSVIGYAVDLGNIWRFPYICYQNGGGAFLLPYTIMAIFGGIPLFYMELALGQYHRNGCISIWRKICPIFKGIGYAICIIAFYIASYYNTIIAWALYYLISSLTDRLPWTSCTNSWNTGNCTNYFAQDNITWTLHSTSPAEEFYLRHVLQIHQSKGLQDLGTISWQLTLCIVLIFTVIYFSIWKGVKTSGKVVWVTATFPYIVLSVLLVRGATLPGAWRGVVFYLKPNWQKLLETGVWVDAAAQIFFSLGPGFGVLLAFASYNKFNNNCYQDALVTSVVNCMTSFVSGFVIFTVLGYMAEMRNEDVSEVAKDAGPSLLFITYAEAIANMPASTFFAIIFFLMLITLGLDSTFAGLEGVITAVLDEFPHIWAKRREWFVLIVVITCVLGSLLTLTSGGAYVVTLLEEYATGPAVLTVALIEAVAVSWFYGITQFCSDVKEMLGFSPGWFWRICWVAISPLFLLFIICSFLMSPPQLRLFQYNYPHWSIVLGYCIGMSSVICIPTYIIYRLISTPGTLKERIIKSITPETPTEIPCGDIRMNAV
Method: Measurements of [^3H]-5-HT Uptake into Rat Cortical Synaptosomes.
Whole brains from male Wistar rats (125-225 g), excluding cerebellum, are homogenized in 0.32 M sucrose supplemented with 1 mM nialamid with a glass/teflon homogenizer. The homogenate is centrifuged at 600×g for 10 min at 4° C. The pellet is discarded and the supernatant is centrifuged at 20.000×g for 55 min. The final pellet is homogenized (20 sec) in this assay buffer (0.5 mg original tissue/well). Test compounds (or buffer) and 10 nM [^3H]-5-HT are added to 96 well plates and shaken briefly. 10 Composition of assay buffer: 123 mM NaCl, 4.82 mM KCl, 0.973 mM CaCl2, 1.12 mM MgSO4, 12.66 mM Na2HPO4, 2.97 mM NaH2PO4, 0.162 mM EDTA, 10 mM glucose and 1 mM ascorbic acid. Buffer is oxygenated with 95% 02/5% C02 for 10 min at 37° C. and pH is adjusted 7.4. The incubation is started by adding tissue to a final assay volume of 0.2 mL. After 15 min incubation with radioligand at 37° C., samples are filtered 15 directly on Unifilter GF/C glass fiber filters (soaked for 1 hour in 0.1% polyethylenimine) under vacuum and immediately washed with 3×0.2 ml assay buffer. Non-specific uptake is determined using citalopram (10 μM final concentration). Citalopram is included as reference in all experiments as dose-response curve.

Row | Compound | norepinephrine uptake inhibition [1] | serotonin reuptake inhibition [2]
1 | Cc1ccc(Oc2ccccc2C2=CCNCC2)c(C)c1 [1a, 4-[2-(2,4-Dimethylphenoxy)phenyl]-1,2,3,6-tetrahydropyridine] | did not show norepinephrine uptake inhibition | did show serotonin reuptake inhibition
2 | Clc1ccc(Oc2ccccc2C2=CCNCC2)cc1 [1b, 4-[2-(4-Chlorophenoxy)phenyl]-1,2,3,6-tetrahydropyridine] | did not show norepinephrine uptake inhibition | did show serotonin reuptake inhibition
3 | Cc1cc(F)ccc1Oc1ccccc1C1=CCNCC1 [1c, 4-[2-(4-Fluoro-2-methylphenoxy)phenyl]-1,2,3,6-tetrahydropyridine] | did not show norepinephrine uptake inhibition | did show serotonin reuptake inhibition
4 | Fc1ccc(Oc2ccccc2C2=CCNCC2)cc1 [1d, 4-[2-(4-Fluorophenoxy)phenyl]-1,2,3,6-tetrahydropyridine] | did not show norepinephrine uptake inhibition | did show serotonin reuptake inhibition
5 | Cc1ccc(Oc2ccccc2C2=CCNCC2)cc1 [1e, 4-[2-(4-Methylphenoxy)phenyl]-1,2,3,6-tetrahydropyridine] | did not show norepinephrine uptake inhibition | did show serotonin reuptake inhibition
6 | COc1ccc(Oc2ccccc2C2=CCNCC2)cc1 [1f, 4-[2-(4-Methoxyphenoxy)phenyl]-1,2,3,6-tetrahydropyridine] | did not show norepinephrine uptake inhibition | did show serotonin reuptake inhibition
7 | Cc1ccc(Oc2ccccc2C2CCNCC2)cc1C [3h, 4-[2-(3,4-Dimethyl-phenoxy)-phenyl]-piperidine] | did not show norepinephrine uptake inhibition | did show serotonin reuptake inhibition
8 | Cc1cc(Oc2ccccc2C2CCNCC2)c(C)c(C)c1C [3i, 4-[2-(2,3,4,5-Tetramethyl-phenoxy)-phenyl]-piperidine] | did not show norepinephrine uptake inhibition | did show serotonin reuptake inhibition
9 | COc1ccc(Oc2ccccc2C2CCNCC2)cc1OC [3m, 4-[2-(3,4-Dimethoxy-phenoxy)-phenyl]-piperidine] | did not show norepinephrine uptake inhibition | did show serotonin reuptake inhibition
